According to ChEMBL document CHEMBL1201862, “PubChem BioAssay data set” (2004):
Active and inactive are the calls of the source.

How the values were obtained:
[1] = biological target: Protein Wnt-3a (Mus musculus, UniProt P27467); test: antagonism of Wnt3a pathway luciferase reporter – Wnt-LIGHT cells, luminescence, selectivity assay for Gli-SUFU antagonist project, dose response (AID 651570); assay type: functional; conditions: read-out: IC50_Mean;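 also: Wnt-LIGHT reporter cells stimulated with conditioned medium from Wnt3a-producing cells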
Chain of Protein Wnt-3a (P27467 whole entry): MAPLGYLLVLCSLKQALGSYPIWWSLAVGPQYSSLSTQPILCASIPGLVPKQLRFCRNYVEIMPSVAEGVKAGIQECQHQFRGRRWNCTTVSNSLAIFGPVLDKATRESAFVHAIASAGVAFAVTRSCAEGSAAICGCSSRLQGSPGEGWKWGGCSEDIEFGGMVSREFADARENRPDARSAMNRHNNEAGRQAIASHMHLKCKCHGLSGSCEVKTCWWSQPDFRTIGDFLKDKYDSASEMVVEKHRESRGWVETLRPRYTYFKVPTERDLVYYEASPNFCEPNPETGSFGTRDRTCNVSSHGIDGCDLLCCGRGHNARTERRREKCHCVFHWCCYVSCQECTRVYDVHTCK

[2] = biological target: T1, Short transient receptor potential channel 4 (Mus musculus, UniProt Q9QUQ5); test: block of DAMGO-driven TRPC4 calcium entry – cell-based, HEK293 TRPC4/mu-opioid, Fluo-4 calcium, dose response (AID 434942); assay type: functional;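 also: potency of inhibitors blocking the TRPC4 calcium response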
T1 sequence (Q9QUQ5 whole entry): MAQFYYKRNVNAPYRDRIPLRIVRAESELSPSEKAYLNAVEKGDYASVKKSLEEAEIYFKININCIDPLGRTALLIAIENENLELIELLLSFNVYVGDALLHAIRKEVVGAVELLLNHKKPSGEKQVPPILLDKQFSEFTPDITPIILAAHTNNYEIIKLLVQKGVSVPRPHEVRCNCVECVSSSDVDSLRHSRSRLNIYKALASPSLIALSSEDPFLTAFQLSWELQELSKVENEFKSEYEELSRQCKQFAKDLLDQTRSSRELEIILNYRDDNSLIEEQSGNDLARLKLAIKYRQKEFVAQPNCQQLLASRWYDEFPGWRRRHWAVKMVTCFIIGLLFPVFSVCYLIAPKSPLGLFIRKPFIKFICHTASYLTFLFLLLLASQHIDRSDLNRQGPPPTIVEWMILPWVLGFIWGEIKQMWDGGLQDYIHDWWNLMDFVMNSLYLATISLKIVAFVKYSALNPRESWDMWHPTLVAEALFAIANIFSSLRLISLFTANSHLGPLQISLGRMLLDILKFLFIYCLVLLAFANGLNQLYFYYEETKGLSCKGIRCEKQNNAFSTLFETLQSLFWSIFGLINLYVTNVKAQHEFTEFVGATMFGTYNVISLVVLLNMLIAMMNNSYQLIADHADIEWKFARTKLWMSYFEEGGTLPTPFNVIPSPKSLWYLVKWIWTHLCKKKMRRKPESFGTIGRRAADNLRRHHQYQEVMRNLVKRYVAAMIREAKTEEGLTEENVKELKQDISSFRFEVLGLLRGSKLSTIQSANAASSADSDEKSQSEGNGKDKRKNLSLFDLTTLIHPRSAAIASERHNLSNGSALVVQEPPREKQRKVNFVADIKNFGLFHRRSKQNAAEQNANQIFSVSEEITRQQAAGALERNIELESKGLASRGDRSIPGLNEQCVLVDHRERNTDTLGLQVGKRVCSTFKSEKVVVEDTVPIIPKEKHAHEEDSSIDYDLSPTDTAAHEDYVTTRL

[3] = biological target: Nonstructural protein 1 (Influenza A virus, UniProt Q194T2); assay type: functional, Influenza A virus (A/California/07/2009(H1N1))
Chain of Nonstructural protein 1 (Q194T2 whole entry): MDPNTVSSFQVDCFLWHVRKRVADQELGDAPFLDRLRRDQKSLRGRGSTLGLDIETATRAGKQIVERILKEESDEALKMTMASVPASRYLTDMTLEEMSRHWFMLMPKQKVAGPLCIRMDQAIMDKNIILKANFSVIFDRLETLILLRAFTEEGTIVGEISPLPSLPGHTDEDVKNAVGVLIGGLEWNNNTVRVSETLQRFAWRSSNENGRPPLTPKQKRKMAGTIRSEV

[4] = biological target: T2, Histone-lysine N-methyltransferase NSD2 (Homo sapiens, UniProt O96028); assay type: biochemical
T2 sequence (O96028 whole entry): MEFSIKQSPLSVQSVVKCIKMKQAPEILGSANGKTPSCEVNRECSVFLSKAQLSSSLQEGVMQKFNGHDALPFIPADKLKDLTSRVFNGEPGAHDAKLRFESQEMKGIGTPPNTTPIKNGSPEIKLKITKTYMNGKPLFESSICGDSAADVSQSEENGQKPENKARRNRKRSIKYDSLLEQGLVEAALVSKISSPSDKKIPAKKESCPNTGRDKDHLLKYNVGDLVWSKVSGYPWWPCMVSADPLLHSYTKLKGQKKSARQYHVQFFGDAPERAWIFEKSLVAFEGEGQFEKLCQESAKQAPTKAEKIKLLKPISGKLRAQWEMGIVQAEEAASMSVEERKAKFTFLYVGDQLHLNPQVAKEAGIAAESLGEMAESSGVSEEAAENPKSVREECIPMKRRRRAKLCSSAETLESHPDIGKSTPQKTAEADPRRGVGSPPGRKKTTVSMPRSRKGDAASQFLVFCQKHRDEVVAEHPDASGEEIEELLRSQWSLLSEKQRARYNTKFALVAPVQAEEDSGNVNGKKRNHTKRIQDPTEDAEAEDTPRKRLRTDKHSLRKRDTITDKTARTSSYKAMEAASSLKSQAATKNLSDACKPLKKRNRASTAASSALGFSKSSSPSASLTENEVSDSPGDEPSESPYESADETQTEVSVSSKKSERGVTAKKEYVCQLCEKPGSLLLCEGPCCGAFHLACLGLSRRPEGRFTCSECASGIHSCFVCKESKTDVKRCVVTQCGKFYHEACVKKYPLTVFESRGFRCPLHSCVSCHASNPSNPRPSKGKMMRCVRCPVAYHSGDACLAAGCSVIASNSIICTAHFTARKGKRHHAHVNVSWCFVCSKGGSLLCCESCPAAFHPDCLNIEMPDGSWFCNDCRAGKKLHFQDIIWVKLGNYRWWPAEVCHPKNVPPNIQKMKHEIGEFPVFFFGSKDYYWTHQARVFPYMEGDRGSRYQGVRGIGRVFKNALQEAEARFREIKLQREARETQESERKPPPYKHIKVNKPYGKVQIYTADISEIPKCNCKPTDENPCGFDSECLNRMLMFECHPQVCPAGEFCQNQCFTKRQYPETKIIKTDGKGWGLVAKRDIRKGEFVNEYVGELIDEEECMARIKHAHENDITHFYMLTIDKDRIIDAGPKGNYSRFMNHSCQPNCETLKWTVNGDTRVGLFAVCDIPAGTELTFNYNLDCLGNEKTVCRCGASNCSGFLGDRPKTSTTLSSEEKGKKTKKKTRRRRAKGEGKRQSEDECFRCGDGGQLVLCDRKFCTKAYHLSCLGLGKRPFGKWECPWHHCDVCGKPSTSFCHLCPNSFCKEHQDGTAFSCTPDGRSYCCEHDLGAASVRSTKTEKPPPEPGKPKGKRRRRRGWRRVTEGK

[5] = biological target: T3, Corticotropin-releasing factor receptor 2/Corticotropin-releasing factor-binding protein (Homo sapiens, UniProt P24387+Q13324); test: Dose Response confirmation of uHTS hits for small molecule antagonists of the CRF-binding protein and CRF-R2 receptor complex.; assay type: functional; conditions: read-out: IC50_Mean
T3 sequence (Q13324 whole entry): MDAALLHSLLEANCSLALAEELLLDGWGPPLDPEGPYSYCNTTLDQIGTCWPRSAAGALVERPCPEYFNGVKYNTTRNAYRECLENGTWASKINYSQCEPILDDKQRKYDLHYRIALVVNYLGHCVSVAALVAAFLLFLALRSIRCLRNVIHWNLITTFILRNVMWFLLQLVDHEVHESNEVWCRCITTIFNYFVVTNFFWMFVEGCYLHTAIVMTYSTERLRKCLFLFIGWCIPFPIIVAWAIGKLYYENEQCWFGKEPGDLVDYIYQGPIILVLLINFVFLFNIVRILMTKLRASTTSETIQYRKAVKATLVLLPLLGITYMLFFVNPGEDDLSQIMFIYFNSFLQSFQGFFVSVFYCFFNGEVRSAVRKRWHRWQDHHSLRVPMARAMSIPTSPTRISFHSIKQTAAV
T3 sequence (P24387 whole entry): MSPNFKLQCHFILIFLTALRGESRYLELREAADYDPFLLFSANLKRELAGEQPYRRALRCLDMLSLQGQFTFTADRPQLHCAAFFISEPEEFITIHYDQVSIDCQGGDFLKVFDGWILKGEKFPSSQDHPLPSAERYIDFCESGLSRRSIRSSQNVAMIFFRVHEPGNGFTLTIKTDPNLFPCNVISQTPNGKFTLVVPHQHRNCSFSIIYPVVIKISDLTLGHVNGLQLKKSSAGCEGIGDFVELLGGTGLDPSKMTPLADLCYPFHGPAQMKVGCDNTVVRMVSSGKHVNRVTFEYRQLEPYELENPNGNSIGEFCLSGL

[6] = biological target: T3, Corticotropin-releasing factor receptor 2/Corticotropin-releasing factor-binding protein; test: activators of CRF receptor 2 with binding protein – uHTS hits, confirmation (AID 602473); assay type: functional; conditions: read-out: EC50_Mean
[7] = cells; assay type: functional, cell-based
[8] = cells; assay type: functional, cell-based; remark: listed apart in the source
[9] = biological target: T4, Ubiquitin-conjugating enzyme E2 N (Homo sapiens, UniProt P61088); assay type: functional;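 also: Dose-response confirmation in a TR-FRET assay detecting UBC13-driven polyubiquitin chain formation, inhibition measured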
T4 sequence (P61088 whole entry): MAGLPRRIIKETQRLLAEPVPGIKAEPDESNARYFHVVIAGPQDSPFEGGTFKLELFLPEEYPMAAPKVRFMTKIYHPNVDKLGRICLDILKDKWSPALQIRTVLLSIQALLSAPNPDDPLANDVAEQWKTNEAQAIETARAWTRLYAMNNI

[10] = reduction of Shn3 3'UTR-driven luciferase in osteoblasts – cell-based, Clone20 osteoblasts, firefly luciferase, cherry-picked, dose response (AID 624132); assay type: functional;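 also: firefly luciferase luminescence from reporter carrying the Shn3 3'UTR in osteoblasts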
[11] = loss of viability in HepG2 cells – cell-based, CellTiter-Glo, cherry-picked, cytotoxicity control for Shn3 inhibitor project, dose response (AID 624134); assay type: functional
[12] = non-specific 3'UTR reporter inhibition in Clone20-Shn3RL – cell-based, Renilla luciferase, cherry-picked, counter-screen for Shn3 inhibitor project, dose response (AID 624133); assay type: functional
[13] = test system: P388/ADR; test: cells; assay type: functional; conditions: Mus musculus
[14] = test system: SN12K1; test: cells; assay type: functional; conditions: Homo sapiens
[15] = test system: P388; test: cells; assay type: functional; conditions: Mus musculus
[16] = HEK-293T cell viability reduction – luminescence, B-cell screen hits, cytotoxicity control for BCR NF-kB inhibitor project, dose response (AID 489021); assay type: functional, cell-based;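 also: HEK-293T cells carrying an NF-kB luciferase reporter; cells exposed to compound for about 14 hours before viability readout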

Q: With `O=C(Nc1cccc(C(F)(F)F)c1)C1CCN(S(=O)(=O)c2ccc(N3CCCC3=O)cc2)CC1` as the compound, how does the IC50 [1] read?
A: Its IC50 is 6.98 µM (active).

Q: With `CN(C)C(CNC(=O)c1ccccc1OCc1ccc(Cl)cc1)c1ccco1` (configuration not stated) as the compound, how does the EC50 [2] read?
A: Its EC50 is 0.0947 µM (active).

Q: With `O=C(CN1CC(=O)Oc2ccccc21)OCC(=O)c1ccc(Br)cc1` as the compound, how does the IC50 [3] read?
A: The IC50 was 1.61 µM (active).

Q: For `O=C(CCCCCN1C(=O)C2C3C=CC(C3)C2C1=O)Nc1ccc2ncccc2c1` (configuration not stated), which AC50 [4] is on record?
A: The AC50 was 8.81 µM (active).

Q: What does the source list for `O=C(O)C1C2C=CC(C2)C1C(=O)NCCc1cccc(Cl)c1` (configuration not stated)?
A: IC50 [5]: > 47.1 µM (inactive); EC50 [6]: > 53 µM (inactive); IC50 [7]: > 29.9 µM (inactive); EC50 [8]: > 29.9 µM (inactive)

Q: With `Cc1ncc(S(=O)(=O)c2ccc(Cl)cc2)c(N)n1` as the compound, how does the IC50 [9] read?
A: The IC50 was > 20 µM (inactive).

Q: Which IC50 [3] does the source give for `Cc1n[nH]c(=S)n(/N=C/c2ccccn2)c1=O` here?
A: Its IC50 is 6.08 µM (active).

Q: Which results are given for `CSc1nc(-c2ccc(Cl)cc2)nn1S(=O)(=O)c1ccccc1`?
A: IC50 [7]: > 29.9 µM (inactive); EC50 [8]: > 29.9 µM (inactive)

Q: Which IC50 [3] does the source give for `C=CCn1c(-c2ccc(S(=O)(=O)N3CCOCC3)cc2)cs/c1=N\c1ccccc1` here?
A: Its IC50 is > 100 µM (active).

Q: And the AC50 [10]?
A: The AC50 was 1.52 µM (active).

Q: What about the AC50 [11] of the same compound?
A: The AC50 was 40 µM (active).

Q: What about the AC50 [12] of the same compound?
A: Its AC50 is 5.6 µM (active).

Q: With `Cc1nn(-c2ccccc2)c2nc(C(F)(F)F)cc(O)c12` as the compound, how does the EC50 [2] read?
A: Its EC50 is 6.68 µM (active).

Q: Which results are given for `CC(C)=CC1C(C(=O)O)C1(C)C` (configuration not stated) [CHRYSANTHEMIC ACID]?
A: GI50 [13]: 488 µM (inactive); GI50 [14]: > 750 µM (inactive); GI50 [15]: > 750 µM (inactive)

Q: With `Cc1ccccc1C(=O)NCC(=O)NNC(=S)NC(=O)c1ccccc1C` as the compound, how does the IC50 [9] read?
A: The IC50 was > 20 µM (inactive).

Q: With `Cc1nn(-c2ccc(N3CCCCC3)nn2)c(C)c1CCC(=O)Nc1ccccc1F` as the compound, how does the IC50 [16] read?
A: The IC50 was > 80 µM (inactive).
